Laboratory results published in patent publication US20090156563A1, “Glucan Compositions” (priority 2005, published 2009).

System: skin of the forearm
Test: Determination of skin roughness (DIN 4768ff, profilometry of silicone skin impressions)
Assay type: in vivo, human
Conditions: 10% glyceryl stearate, 8 hours after application
Protocol: An aqueous lotion for the treatment of skin roughness is formulated from an aqueous emulsion containing 10% by weight of glyceryl stearate and either 0.005% or 0.05% or 0.5% by weight of β-1,3-scleroglucan (using formulations A-D described further above).
The determination of skin roughness is conducted according to German standard DIN 4768ff. The roughness of the skin is determined by taking silicone-based skin impressions and then measuring the surface profile of the impressions, using computer-aided profilometry. The skin roughness is calculated from the multiple measuring points (100 points per square millimeter). The number of volunteers used is 10. The determination of skin roughness is conducted both prior to application of the test lotion and 8 hours after application of the test lotion. The skin of the forearm is used as the skin test area. For the purpose of comparison, a control experiment is conducted using a placebo containing none of the scleroglucan formulations.

**Q.** With β-1,3-scleroglucan as the substance, how does the “reduction of skin roughness (relative to untreated skin)” value (lotion with 0.005% by weight β-1,3-scleroglucan (formulations A-D)) read?
**A.** good reduction

**Q.** What about the “reduction of skin roughness (relative to untreated skin)” value (lotion with 0.05% by weight β-1,3-scleroglucan (formulations A-D)) of the same substance?
**A.** good reduction
